In paper PMC7366380, “Discovery of a Potent and Selective Covalent Inhibitor and Activity-Based Probe for the Deubiquitylating Enzyme UCHL1, with Antifibrotic Activity” (Journal of the American Chemical Society, 2020):
Where “and” joins values, the source holds several entries; their conditions need not be identical. Equal entries are not always repeated.

Assays:
[1] = molecular target: T1, USP22 (Homo sapiens, UniProt Q9UPT9); assay: Biochemical DUB selectivity profiling assay: USP22; conditions: Ub-Rho110 400 nM, buffer B; read-out: Biochemical IC50 range, USP22
T1 sequence (Q9UPT9 1-525): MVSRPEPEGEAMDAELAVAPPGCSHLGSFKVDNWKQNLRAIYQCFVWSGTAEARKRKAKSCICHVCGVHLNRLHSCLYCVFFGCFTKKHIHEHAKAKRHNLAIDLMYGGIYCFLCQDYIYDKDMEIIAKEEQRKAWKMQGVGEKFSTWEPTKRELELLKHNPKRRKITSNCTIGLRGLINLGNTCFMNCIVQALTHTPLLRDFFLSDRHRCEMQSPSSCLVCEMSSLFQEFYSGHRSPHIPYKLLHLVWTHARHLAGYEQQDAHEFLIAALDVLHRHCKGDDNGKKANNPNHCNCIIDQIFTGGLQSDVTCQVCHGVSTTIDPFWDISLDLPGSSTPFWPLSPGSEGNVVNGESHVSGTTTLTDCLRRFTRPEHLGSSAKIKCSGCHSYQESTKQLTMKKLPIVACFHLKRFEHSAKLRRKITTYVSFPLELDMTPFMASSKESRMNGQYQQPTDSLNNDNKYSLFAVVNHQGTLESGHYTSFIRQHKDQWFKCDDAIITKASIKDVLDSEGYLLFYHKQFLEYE
T1 sequence (Q14CW9 1-347 partner): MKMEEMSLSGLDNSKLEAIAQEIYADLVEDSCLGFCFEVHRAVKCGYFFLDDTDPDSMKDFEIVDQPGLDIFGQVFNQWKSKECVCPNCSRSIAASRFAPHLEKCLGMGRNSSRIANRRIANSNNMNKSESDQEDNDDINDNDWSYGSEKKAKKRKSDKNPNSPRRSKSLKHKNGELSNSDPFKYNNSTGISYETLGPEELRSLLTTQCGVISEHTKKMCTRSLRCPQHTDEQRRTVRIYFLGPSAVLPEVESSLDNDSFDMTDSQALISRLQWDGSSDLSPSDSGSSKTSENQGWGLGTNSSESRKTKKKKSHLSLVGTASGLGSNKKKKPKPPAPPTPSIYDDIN
T1 sequence (Q9NPA8 1-101 partner): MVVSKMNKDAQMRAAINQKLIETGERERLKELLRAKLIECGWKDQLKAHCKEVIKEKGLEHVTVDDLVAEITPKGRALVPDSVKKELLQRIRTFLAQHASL
Experimental: (§1) DUB Assay Substrate Substrate
(§2) Buffer Concentration (nM) […]
(§3) Sepharose® 4B resin (GE Healthcare).
(§4) 10 kDa molecular weight cut-off (MWCO)).
(§5) Fractions containing protein
(§6) Protein concentration was […]
(§7) reaction volume of 21 μL. […]
(§8) compound (final concentration 5 nM).
(§9) IC50 values were determined
(§10) Biochemical DUB selectivity profiling assays […]
(§11) in 40 µL total reaction volume.

[2] = molecular target: T2, USP28 (Homo sapiens, UniProt Q96RU2); assay: Biochemical DUB selectivity profiling assay: USP28; conditions: Ub-Lys-TAMRA 50 nM, buffer B; read-out: Biochemical IC50 range, USP28
T2 sequence (Q96RU2 1-1077): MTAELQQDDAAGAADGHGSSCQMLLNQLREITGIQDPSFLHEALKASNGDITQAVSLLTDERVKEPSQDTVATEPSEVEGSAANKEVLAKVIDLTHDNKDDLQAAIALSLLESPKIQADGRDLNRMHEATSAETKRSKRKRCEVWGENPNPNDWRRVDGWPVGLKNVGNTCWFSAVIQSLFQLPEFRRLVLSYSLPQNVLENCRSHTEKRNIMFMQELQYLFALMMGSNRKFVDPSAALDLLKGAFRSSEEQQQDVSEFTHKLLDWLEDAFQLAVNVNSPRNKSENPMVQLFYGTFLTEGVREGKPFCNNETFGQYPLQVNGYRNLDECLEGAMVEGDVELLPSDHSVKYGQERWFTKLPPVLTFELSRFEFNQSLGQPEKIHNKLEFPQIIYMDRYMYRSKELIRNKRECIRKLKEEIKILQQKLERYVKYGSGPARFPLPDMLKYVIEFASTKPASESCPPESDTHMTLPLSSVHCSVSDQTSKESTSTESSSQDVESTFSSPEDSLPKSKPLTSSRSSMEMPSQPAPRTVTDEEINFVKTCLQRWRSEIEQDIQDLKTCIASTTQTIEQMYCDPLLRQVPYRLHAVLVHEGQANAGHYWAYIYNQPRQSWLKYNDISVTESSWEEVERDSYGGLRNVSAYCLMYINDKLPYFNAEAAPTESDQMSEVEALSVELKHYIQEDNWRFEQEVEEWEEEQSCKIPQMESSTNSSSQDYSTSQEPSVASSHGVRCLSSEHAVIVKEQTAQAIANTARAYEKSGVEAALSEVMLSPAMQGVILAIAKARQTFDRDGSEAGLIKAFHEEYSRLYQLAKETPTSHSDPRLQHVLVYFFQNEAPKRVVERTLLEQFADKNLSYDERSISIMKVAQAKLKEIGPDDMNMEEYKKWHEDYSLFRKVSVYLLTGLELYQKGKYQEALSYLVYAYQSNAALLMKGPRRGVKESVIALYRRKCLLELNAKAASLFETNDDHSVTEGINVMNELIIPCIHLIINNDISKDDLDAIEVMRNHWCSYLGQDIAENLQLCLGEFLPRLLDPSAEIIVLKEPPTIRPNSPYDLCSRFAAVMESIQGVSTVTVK
Experimental: as §1, §2, §3, §4, §5, §6, §7, §8, §9, §10, §11

[3] = molecular target: USP1 (Homo sapiens, UniProt O94782); assay: biochemical
[4] = molecular target: USP10 (Homo sapiens, UniProt Q14694); assay: biochemical
[5] = FMT assay, cell number (DAPI nuclei count); conditions: human
[6] = molecular target: T3, UCHL1 (Homo sapiens, UniProt P09936); assay: In-cell proteome-wide competitive ABPP (quantitative chemical proteomics), HEK293: UCHL1; conditions: for Log2 reporter intensity values: UCHL1: DMSO substract (FC); for Log2 reporter intensity values: UCHL1 / Log2 reporter intensity values: replicates A-C; for UCHL1 response in proteome-wide competitive ABPP: HEK293, compound 60 min, then 2 (20 nM) 10 min; for Log2 reporter intensity values: UCHL1, DMSO subtracted
T3 sequence (P09936 1-223): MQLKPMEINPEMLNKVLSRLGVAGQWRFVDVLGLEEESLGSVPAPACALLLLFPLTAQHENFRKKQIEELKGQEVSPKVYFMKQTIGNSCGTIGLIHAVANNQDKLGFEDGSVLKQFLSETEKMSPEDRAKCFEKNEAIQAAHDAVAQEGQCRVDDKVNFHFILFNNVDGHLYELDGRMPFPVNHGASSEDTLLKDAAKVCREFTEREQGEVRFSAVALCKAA

Chain of USP10 (Q14694 whole entry): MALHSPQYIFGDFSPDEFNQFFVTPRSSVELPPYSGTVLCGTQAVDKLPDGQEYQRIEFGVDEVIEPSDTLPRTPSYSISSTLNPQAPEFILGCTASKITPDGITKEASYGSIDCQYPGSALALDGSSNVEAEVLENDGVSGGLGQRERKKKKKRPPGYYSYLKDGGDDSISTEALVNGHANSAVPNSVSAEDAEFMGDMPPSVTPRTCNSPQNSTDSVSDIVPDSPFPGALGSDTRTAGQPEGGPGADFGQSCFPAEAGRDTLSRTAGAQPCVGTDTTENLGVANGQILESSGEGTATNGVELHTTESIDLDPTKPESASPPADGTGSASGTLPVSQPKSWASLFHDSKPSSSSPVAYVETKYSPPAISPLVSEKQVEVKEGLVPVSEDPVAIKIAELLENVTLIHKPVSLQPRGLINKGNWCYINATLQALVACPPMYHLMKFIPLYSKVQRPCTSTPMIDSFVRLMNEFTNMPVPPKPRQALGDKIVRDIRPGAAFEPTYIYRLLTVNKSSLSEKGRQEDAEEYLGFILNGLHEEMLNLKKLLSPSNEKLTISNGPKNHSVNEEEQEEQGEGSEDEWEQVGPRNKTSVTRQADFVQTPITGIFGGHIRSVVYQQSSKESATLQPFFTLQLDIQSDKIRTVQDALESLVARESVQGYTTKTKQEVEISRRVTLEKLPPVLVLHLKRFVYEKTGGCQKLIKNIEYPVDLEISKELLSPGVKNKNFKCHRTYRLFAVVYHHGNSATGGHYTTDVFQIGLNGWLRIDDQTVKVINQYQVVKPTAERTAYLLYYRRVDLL
Chain of USP1 (O94782 whole entry, species assumed): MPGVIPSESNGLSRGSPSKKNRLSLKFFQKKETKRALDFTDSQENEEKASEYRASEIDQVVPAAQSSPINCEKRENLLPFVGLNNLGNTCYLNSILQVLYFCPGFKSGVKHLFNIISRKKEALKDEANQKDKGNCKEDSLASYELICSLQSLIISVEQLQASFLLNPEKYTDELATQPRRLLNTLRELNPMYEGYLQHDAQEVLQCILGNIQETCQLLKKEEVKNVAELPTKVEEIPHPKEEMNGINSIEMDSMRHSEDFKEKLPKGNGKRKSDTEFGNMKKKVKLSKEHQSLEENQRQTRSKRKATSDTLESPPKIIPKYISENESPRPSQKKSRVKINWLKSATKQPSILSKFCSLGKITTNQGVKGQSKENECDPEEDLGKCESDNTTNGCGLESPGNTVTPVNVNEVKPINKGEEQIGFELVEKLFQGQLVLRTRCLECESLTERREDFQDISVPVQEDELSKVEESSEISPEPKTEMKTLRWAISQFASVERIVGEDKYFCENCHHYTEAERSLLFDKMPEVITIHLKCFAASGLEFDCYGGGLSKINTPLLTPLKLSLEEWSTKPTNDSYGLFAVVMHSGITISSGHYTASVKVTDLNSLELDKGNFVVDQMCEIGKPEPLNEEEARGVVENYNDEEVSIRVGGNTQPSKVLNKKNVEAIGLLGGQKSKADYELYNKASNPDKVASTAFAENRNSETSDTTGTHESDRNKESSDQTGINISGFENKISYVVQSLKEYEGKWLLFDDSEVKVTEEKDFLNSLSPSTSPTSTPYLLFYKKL
Chain of USP1 (Q8TAF3 whole entry partner, species assumed): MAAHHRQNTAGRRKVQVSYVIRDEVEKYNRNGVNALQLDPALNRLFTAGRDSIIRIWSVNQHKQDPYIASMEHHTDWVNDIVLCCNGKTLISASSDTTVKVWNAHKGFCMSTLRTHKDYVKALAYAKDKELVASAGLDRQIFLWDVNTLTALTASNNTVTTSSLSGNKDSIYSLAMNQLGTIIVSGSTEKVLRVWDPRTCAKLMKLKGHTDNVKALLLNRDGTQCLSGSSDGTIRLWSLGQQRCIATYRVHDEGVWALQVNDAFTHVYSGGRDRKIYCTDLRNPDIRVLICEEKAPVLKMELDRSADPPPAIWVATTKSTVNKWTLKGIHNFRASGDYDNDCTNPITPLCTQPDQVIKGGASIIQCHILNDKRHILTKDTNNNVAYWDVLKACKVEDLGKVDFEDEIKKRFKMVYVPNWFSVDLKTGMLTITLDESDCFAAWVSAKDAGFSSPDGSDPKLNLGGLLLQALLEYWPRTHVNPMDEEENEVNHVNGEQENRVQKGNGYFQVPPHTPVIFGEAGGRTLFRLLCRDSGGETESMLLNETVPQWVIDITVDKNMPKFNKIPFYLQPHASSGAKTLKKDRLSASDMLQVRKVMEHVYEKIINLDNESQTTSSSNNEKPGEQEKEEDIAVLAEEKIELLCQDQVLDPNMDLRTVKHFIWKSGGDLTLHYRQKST

IC50 [1] | IC50 [2] | IC50 [3] | IC50 [4] | EC50 at 3 days [5] | Log2 reporter intensity values: UCHL1 ([6]; 1 at 1 μM, competition with ABP 2) | Log2 reporter intensity values: UCHL1 ([6]; 1 at 4 μM, competition with ABP 2) | UCHL1 response in proteome-wide competitive ABPP [6] | Log2 reporter intensity values ([6]; 1_1 μM) | Log2 reporter intensity values ([6]; 1_4 μM) | Log2 reporter intensity values ([6]; 1 at 1 μM) | Log2 reporter intensity values ([6]; 1 at 4 μM) | Log2 reporter intensity values: UCHL1 ([6]; 20 nM ABP 2 alone) | Log2 reporter intensity values: UCHL1 ([6]; 3 at 1 μM, competition with ABP 2) | Log2 reporter intensity values: UCHL1 ([6]; 3 at 4 μM, competition with ABP 2) | Log2 reporter intensity values ([6]; 3_1 μM) | Log2 reporter intensity values ([6]; 3_4 μM) | Log2 reporter intensity values ([6]; 3 at 1 μM) | Log2 reporter intensity values ([6]; 3 at 4 μM) | Compound | Log2 reporter intensity values ([6]; 20 nM ABP 2)
> 10 µM | > 10 µM | > 10 µM | > 10 µM | ~11 µM | 1.266 and 1.307 and 1.157 | 0.9345 and 0.8874 and 0.9379 | responds strongly | 0.2661 and 0.3067 and 0.157 | -0.06576 and -0.1128 and -0.06231 | 0.3407 and 0.3862 and 0.2107 | -0.09779 and -0.1723 and -0.09247 | – | – | – | – | – | – | – | N#CN1CCC[C@H]1C(=O)N1CCc2c(-c3c[nH]c4ncccc34)cccc21 [Compound 1] | –
> 10 µM | > 10 µM | – | – | ~11 µM | – | – | – | – | – | – | – | 6.229 and 5.741 and 6.184 | – | – | – | – | – | – | C#Cc1cnc2[nH]cc(-c3cccc4c3CCN4C(=O)[C@@H]3CCCN3C#N)c2c1 [Compound 2] | 2.639 and 2.521 and 2.629 and 5.2291 and 4.741 and 5.184
> 10 µM | – | > 10 µM | > 10 µM | ~23 µM | – | – | does not respond | – | – | – | – | – | 5.152 and 5.416 and 5.469 | 5.424 and 5.76 and 5.633 | 4.152 and 4.416 and 4.468 | 4.423 and 4.76 and 4.632 | 2.365 and 2.437 and 2.451 | 2.439 and 2.526 and 2.494 | N#CN1CCC[C@@H]1C(=O)N1CCc2c(-c3c[nH]c4ncccc34)cccc21 [Compound 3] | –

Compound | IC50 [1] | IC50 [2] | IC50 [3] | IC50 [4] | EC50 at 3 days [5] | Log2 reporter intensity values: UCHL1 ([6]; 1 at 1 μM, competition with ABP 2) | Log2 reporter intensity values: UCHL1 ([6]; 1 at 4 μM, competition with ABP 2) | UCHL1 response in proteome-wide competitive ABPP [6] | Log2 reporter intensity values ([6]; 1_1 μM) | Log2 reporter intensity values ([6]; 1_4 μM) | Log2 reporter intensity values ([6]; 1 at 1 μM) | Log2 reporter intensity values ([6]; 1 at 4 μM) | Log2 reporter intensity values: UCHL1 ([6]; 20 nM ABP 2 alone) | Log2 reporter intensity values: UCHL1 ([6]; 3 at 1 μM, competition with ABP 2) | Log2 reporter intensity values: UCHL1 ([6]; 3 at 4 μM, competition with ABP 2) | Log2 reporter intensity values ([6]; 3_1 μM) | Log2 reporter intensity values ([6]; 3_4 μM) | Log2 reporter intensity values ([6]; 3 at 1 μM) | Log2 reporter intensity values ([6]; 3 at 4 μM) | Log2 reporter intensity values ([6]; 20 nM ABP 2)
CC(=O)O/N=C1\C(=O)N(Cc2cc(Cl)ccc2Cl)c2ccc(Cl)cc21 [LDN-57444, reference compound] | > 10 µM | > 10 µM | > 10 µM | > 10 µM | – | – | – | – | – | – | – | – | – | – | – | – | – | – | – | –
